In brackets after ≈: the same amount, converted by molar mass. Structures can show the parent of a compound that is named as a salt.
Experiments:
[1] = tested on: Burkholderia cepacia ATCC 25416; test: MIC determination by microbroth dilution; assay type: cell-based; settings: ATCC25416, read-out: MIC B. cepcia
P. aeruginosa PAO1 = test: MIC determination by microbroth dilution; assay type: cell-based, Pseudomonas aeruginosa; settings: Pseudomonas aeruginosa
[2] = tested on: Strep. pneumoniae DAW27 or strain R6; test: MIC determination by microbroth dilution; assay type: cell-based, Streptococcus pneumoniae; settings: Streptococcus pneumoniae; Strep. pneumoniae DAW27 or strain R6 (for 1443-1544); read-out: MIC S. pneumoniae
[3] = tested on: Acinetobacter baumannii ATCC 19606; test: MIC determination by microbroth dilution; assay type: cell-based; settings: ATCC19606
[4] = tested on: Strenotrophomonas maltophilia ATCC 13637; test: MIC determination by microbroth dilution; assay type: cell-based
[5] = tested on: Proteus mirabilis ATCC 25933; test: MIC determination by microbroth dilution; assay type: cell-based; settings: ATCC25933
[6] = tested on: Strep. pyogenes ATCC 700294; test: MIC determination by microbroth dilution; assay type: cell-based, Streptococcus pyogenes; settings: Streptococcus pyogenes, ATCC700294, read-out: MIC S. pyogenes
E. coli K12 ΔtolC = test: microbe, parasite or virus in culture; assay type: cell-based; settings: Escherichia coli, read-out: MIC E. coli K12 ΔtolC
E. coli K12 = test: MIC determination by microbroth dilution; assay type: cell-based, Escherichia coli; settings: Escherichia coli, K12
[7] = tested on: Proteus vulgaris ATCC 33420; test: MIC determination by microbroth dilution; assay type: cell-based; settings: ATCC33420
[8] = tested on: Klebsiella pneumoniae ATCC 33495; test: MIC determination by microbroth dilution; assay type: cell-based; settings: ATCC33495
E. faecalis ATCC 33186 = test: MIC determination by microbroth dilution; assay type: cell-based, Enterococcus faecalis; settings: Enterococcus faecalis, ATCC33186
[9] = tested on: S. aureus 8325 or strain ATCC 29213; test: MIC determination by microbroth dilution; assay type: cell-based, Staphylococcus aureus; settings: Staphylococcus aureus, ATCC29213; S. aureus 8325 or strain ATCC 29213 (for 1471-1544)
M. tuberculosis H37Rv = test: MIC determination by microbroth dilution, anti-tuberculosis activity; assay type: cell-based, Mycobacterium tuberculosis; settings: Mycobacterium tuberculosis, H37RV, 168 h; read-out: MIC
B. anthracis Sterne 34F2 = test: microbe, parasite or virus in culture; assay type: cell-based, Bacillus anthracis; settings: Bacillus anthracis, STERNE34F2, read-out: MIC B. anthracis 34F2

| SMILES | MIC [1] | MIC (P. aeruginosa PAO1) | MIC [2] | MIC [3] | MIC [4] | MIC [5] | MIC [6] | MIC (E. coli K12 ΔtolC) | MIC (E. coli K12) | MIC [7] | MIC [8] | MIC (E. faecalis ATCC 33186) | MIC [9] | MIC (M. tuberculosis H37Rv) | MIC (B. anthracis Sterne 34F2) |
| --- | --- | --- | --- | --- | --- | --- | --- | --- | --- | --- | --- | --- | --- | --- | --- |
| CN[C@@H]1[C@H](O)[C@H](NC)C2O[C@]3(O)C(OC2[C@H]1O)O[C@H](C)C[C@H]3NCC1CC1 (stereo partly drawn) [Compound 1419, 3′-Dihydro-3′-deoxy-4(R)-cyclopropylmethylamino spectinomycin Trihydrochloride] | > 200 µg/mL | > 200 µg/mL | 100 µg/mL | > 200 µg/mL | > 200 µg/mL | > 200 µg/mL | 50 µg/mL | 25 µg/mL | 100 µg/mL | > 200 µg/mL | > 200 µg/mL | 200 µg/mL | 100 µg/mL | 50 µg/mL | 50 µg/mL |
| CN[C@@H]1[C@H](O)[C@H](NC)C2O[C@]3(O)C(OC2[C@H]1O)O[C@H](C)C[C@H]3NC(=O)c1ccccc1F (stereo partly drawn) [Compound 1492, 3′-Dihydro-3′-deoxy-4(R)-(2-fluorobenzene-1-yl)carboxylicamino spectinomycin dihydrochloride] | > 200 µg/mL | > 200 µg/mL | 100 µg/mL | > 200 µg/mL | > 200 µg/mL | > 200 µg/mL | 50 µg/mL | 200 µg/mL | > 200 µg/mL | > 200 µg/mL | > 200 µg/mL | > 200 µg/mL | > 200 µg/mL | > 200 µg/mL | > 200 µg/mL |
| CN[C@@H]1[C@H](O)[C@H](NC)C2O[C@]3(O)C(OC2[C@H]1O)O[C@H](C)C[C@H]3NC(=O)CCNC(=O)c1ccccc1 (stereo partly drawn) [Compound 1503, 3′-Dihydro-3′-deoxy-4(R)-3-benzamido propanoylamino spectino-mycin Dihydrochloride] | > 200 µg/mL | > 200 µg/mL | > 200 µg/mL | > 200 µg/mL | > 200 µg/mL | > 200 µg/mL | > 200 µg/mL | > 200 µg/mL | > 200 µg/mL | > 200 µg/mL | > 200 µg/mL | > 200 µg/mL | > 200 µg/mL | > 200 µg/mL | > 200 µg/mL |
| CN[C@@H]1[C@H](O)[C@H](NC)C2O[C@]3(O)C(OC2[C@H]1O)O[C@H](C)C[C@H]3NC(=O)[C@H](Cc1ccccc1)NC(=O)CN (stereo partly drawn) [Compound 1502, 3′-Dihydro-3′-deoxy-4(R)-[2(S)-(2-aminoacetamido)-3-phenyl]-propanoylamino spectinomycin Trihydrochloride] | > 200 µg/mL | > 200 µg/mL | > 200 µg/mL | > 200 µg/mL | > 200 µg/mL | > 200 µg/mL | > 200 µg/mL | > 200 µg/mL | > 200 µg/mL | > 200 µg/mL | > 200 µg/mL | > 200 µg/mL | > 200 µg/mL | > 200 µg/mL | > 200 µg/mL |
| CN[C@@H]1[C@H](O)[C@H](NC)C2O[C@]3(O)C(OC2[C@H]1O)O[C@H](C)C[C@H]3NC(=O)Cc1ccc([N+](=O)[O-])cn1 (stereo partly drawn) [Compound 1490, 3′-Dihydro-3′-deoxy-4(R)-(5-nitropyridin-2-yl)acetylamino spectinomycin trihydrobromide] | > 200 µg/mL | > 200 µg/mL | 12.5 µg/mL | > 200 µg/mL | > 200 µg/mL | > 200 µg/mL | 12.5 µg/mL | 12.5 µg/mL | 200 µg/mL | > 200 µg/mL | > 200 µg/mL | 50 µg/mL | 100 µg/mL | 6.25 µg/mL | > 200 µg/mL |
| CN[C@@H]1[C@H](O)[C@H](NC)C2O[C@]3(O)C(OC2[C@H]1O)O[C@H](C)C[C@H]3NC(=O)Cc1csc(Nc2ccc(F)cc2)n1 (stereo partly drawn) [Compound 1538, 3′-Dihydro-3′-deoxy-4(R)-(2-((4-fluorophenyl)amino)thiazol-4-yl)acetylamino spectinomycin tribromide] | > 200 µg/mL | 200 µg/mL | 3.1 µg/mL | > 200 µg/mL | > 200 µg/mL | > 200 µg/mL | 6.25 µg/mL | 25 µg/mL | > 200 µg/mL | > 200 µg/mL | > 200 µg/mL | 25 µg/mL | 100 µg/mL | 6.25 µg/mL | > 200 µg/mL |
| CN[C@@H]1[C@H](O)[C@H](NC)C2O[C@]3(O)C(OC2[C@H]1O)O[C@H](C)C[C@H]3NC(=O)Cc1cccc(C)c1 (stereo partly drawn) [Compound 1412, 3′-Dihydro-3′-deoxy-4(R)-m-tolylacetylamino spectinomycin Dihydrochloride] | > 200 µg/mL | 100 µg/mL | 25 µg/mL | > 200 µg/mL | > 200 µg/mL | > 200 µg/mL | 25 µg/mL | 200 µg/mL | > 200 µg/mL | > 200 µg/mL | > 200 µg/mL | 200 µg/mL | 50 µg/mL | 25 µg/mL | 100 µg/mL |
| CN[C@@H]1[C@H](O)[C@H](NC)C2O[C@]3(O)C(OC2[C@H]1O)O[C@H](C)C[C@H]3NC(=O)[C@H](C)N (stereo partly drawn) [Compound 1467, 3′-Dihydro-3′-deoxy-4(R)-[2(S)-amino]propanoylamino spectinomycin Trihydrochloride] | > 200 µg/mL | > 200 µg/mL | 50 µg/mL | > 200 µg/mL | 100 µg/mL | 200 µg/mL | 50 µg/mL | 200 µg/mL | 200 µg/mL | > 200 µg/mL | > 200 µg/mL | > 200 µg/mL | > 200 µg/mL | 200 µg/mL | > 200 µg/mL |
| CN[C@@H]1[C@H](O)[C@H](NC)C2O[C@]3(O)C(OC2[C@H]1O)O[C@H](C)C[C@H]3NC(=O)Cc1cn(Cc2ccccc2)nn1 (stereo partly drawn) [Compound 1537, 3′-Dihydro-3′-deoxy-4(R)-2-(1-benzyl-1H-1,2,3-triazol-4-yl)acetyl-amino spectinomycin tetrabromide] | > 200 µg/mL | > 200 µg/mL | 3.1 µg/mL (≈ 5.82 µM) | > 200 µg/mL | > 200 µg/mL | > 200 µg/mL | 3.1 µg/mL (≈ 5.82 µM) | 12.5 µg/mL (≈ 23.5 µM) | > 200 µg/mL | > 200 µg/mL | > 200 µg/mL | 25 µg/mL (≈ 46.9 µM) | 100 µg/mL (≈ 188 µM) | 50 µg/mL (≈ 93.9 µM) | > 200 µg/mL |
| CN[C@@H]1[C@H](O)[C@H](NC)C2O[C@]3(O)C(OC2[C@H]1O)O[C@H](C)C[C@H]3NC(=O)Cc1ccc(C)cc1 (stereo partly drawn) [Compound 1399, 3′-Dihydro-3′-deoxy-4(R)-p-tolylacetylamino spectinomycin Dihydrochloride] | > 200 µg/mL | 100 µg/mL | 25 µg/mL | > 200 µg/mL | > 200 µg/mL | > 200 µg/mL | 25 µg/mL | 100 µg/mL | > 200 µg/mL | > 200 µg/mL | > 200 µg/mL | 200 µg/mL | 50 µg/mL | 6.1 µg/mL | 100 µg/mL |
| CN[C@@H]1[C@H](O)[C@H](NC)C2O[C@]3(O)C(OC2[C@H]1O)O[C@H](C)C[C@H]3NC(=O)Cc1ccc(Br)cn1 (stereo partly drawn) [Compound 1516, 3′-Dihydro-3′-deoxy-4(R)-(5-bromopyridin-2-yl)acetylamino spectinomycin trihydrobromide] | > 200 µg/mL | > 200 µg/mL | 6.25 µg/mL | > 200 µg/mL | > 200 µg/mL | > 200 µg/mL | 6.25 µg/mL | 12.5 µg/mL | > 200 µg/mL | > 200 µg/mL | > 200 µg/mL | 100 µg/mL | 50 µg/mL | 1.56 µg/mL | > 200 µg/mL |
| CN[C@@H]1[C@H](O)[C@H](NC)C2O[C@]3(O)C(OC2[C@H]1O)O[C@H](C)C[C@H]3NC(=O)CCN (stereo partly drawn) [Compound 1469, 3′-Dihydro-3′-deoxy-4(R)-(3-amino)propanoylamino spectinomycin Trihydrochloride] | > 200 µg/mL | > 200 µg/mL | 50 µg/mL | > 200 µg/mL | 25 µg/mL | > 200 µg/mL | 100 µg/mL | 100 µg/mL | > 200 µg/mL | > 200 µg/mL | > 200 µg/mL | 50 µg/mL | > 200 µg/mL | 200 µg/mL | 50 µg/mL |
| CN[C@@H]1[C@H](O)[C@H](NC)C2O[C@]3(O)C(OC2[C@H]1O)O[C@H](C)C[C@H]3NC(=O)Cc1csc(-c2ccccc2)n1 (stereo partly drawn) [Compound 1517, 3′-Dihydro-3′-deoxy-4(R)-(2-phenylthiazol-4-yl)acetylamino spectinomycin trihydrobromide] | > 200 µg/mL | > 200 µg/mL | 6.25 µg/mL | > 200 µg/mL | > 200 µg/mL | > 200 µg/mL | 6.25 µg/mL | 200 µg/mL | > 200 µg/mL | > 200 µg/mL | > 200 µg/mL | 100 µg/mL | 200 µg/mL | 50 µg/mL | > 200 µg/mL |

Reference: patent US9284325B2, “Spectinamides as anti-tuberculosis agents” (UNIVERSITY OF TENNESSEE RESEARCH FOUNDATION, priority 2009, dated 2016)
